Source: US20260234553A1, “COMPOSITIONS COMPRISING SUPRAMOLECULAR ASSEMBLIES OF PEPTIDE AMPHIPHILES AND ORGANIC CATIONS AND METHODS OF USE THEREOF” (Northwestern University, priority 2023, published 2026)
“And” between values parts separate entries of the source, which are not always exact repeats. Equal values may be shown once. *: point of attachment. Palmitoyl = CCCCCCCCCCCCCCCC(=O)*

Columns and labels:
PA nanostructures = experiment: 1H DOSY NMR of OC free and with PA; type: binding
Description: Binding of organic cations (OCs) to PA. Initial screening of interactions of five different OCs with PA was performed using ^1H NMR spectroscopy in solution (FIG. 53). Here, ^1H signals lineshape from the ^1H NMR spectra of OCs were compared and analyzed against the corresponding ^1H signals from OC-PA samples. It is expected that ^1H signals will experience broadening if binding is occurring. In all cases we observed significant broadening except for tetramethylammonium (OC4), indicating its poor binding to PA nanostructures. ^1H DOSY NMR measurements. Spectra were measured by monitoring the change in intensity of the corresponding resonances as a function of the field gradient strength g (G/cm). A 2D sequence was used for diffusion measurement based on stimulated echo and LED which applies bipolar gradient pulses for diffusion (2 spoil gradients) together with water presaturation during relaxation delay (ledbpgppr2s Bruker sequence). ^1H DOSY data were first processed in Topspin (Fourier transformation, phasing, and baseline correction) and then the peak intensities of the corresponding resonances were extracted and fitted to the Stejskal-Tanner equation (Eq. 1) to give the value of diffusion coefficient D (m^2/s). Solution ^1H DOSY NMR data were fit to Eq. 1 using NMRTools.jl{, #28110}. ^1H HRMAS DOSY NMR data were fit using the Eq. 1 using Dynamics Center 2.6.3 software.
In the Eq. 1, I and I0 are the signal intensities in the presence and absence of gradient pulses, respectively; γ is the gyromagnetic ratio; g and δ are the gradient strength and their duration, respectively; σ=0.9, is the shape factor for the SMSQ gradient used in the experiment; Δ is the time separation between the edges of the gradient pulses.

CA1 pyramidal neurons = experiment: Whole-cell current clamp recordings in organotypic hippocampal slice cultures on PA or ICN layers; type: cell-based, rat; design: Rheobase: unit not given beside the values
Description: To physiologically dissect the unique responses activated by Na^+-ICN vs. K^+-ICN, we explored the effect of ICNs on the stability of the hippocampal network. This well-established ex vivo model allows for the ability to reliably acquire electrophysiological data using organotypic hippocampal slice cultures from neonatal rats. A PA or ICN layer was prepared on top of Millicell® cell culture inserts, inserted hippocampal organotypic slices (including the entorhinal cortex), and measured multiple electrophysiological parameters from CA1 pyramidal neurons at 6, 10, and 14 DIV using whole-cell current clamp recordings (FIG. 5A). Given the known heterogeneity of the hippocampus, the CA1 pyramidal neuron excitability was measured in the dorsal area.
All experiments were carried out according to the European and institutional guidelines for the care and use of laboratory animals (Council Directive 86/609/EEC and French National Research Council) and approved by the local health authority (Préfecture des Bouches-du-Rhône, Marseille). Young wild type Wistar rats (P5-P10), of either sex, were used to prepare organotypic hippocampal slice cultures. Animals were deeply anesthetized with isoflurane (5%) and killed by decapitation. The brain was removed and both hippocampi were individually dissected. Hippocampal slices (300 μm) were cut using a Vibratome (Leica, VT1200S, Wetzlar, Germany) in a sucrose based cutting solution kept at 3-4° C. containing for 1L: ultrapure water (988.5 mL), sucrose (97 g), NaHCO3 (2.18 g), D-glucose (1.8 g), KCl (0.1 g), CaCl2 1M (1 mL), MgCl2 1M (10 mL). Kynurenic acid and penicillin/streptomycin were added to the solution just before cutting to control cellular electrical activity and avoid contamination during slices preparation respectively. Only dorsal hippocampal slices were collected and placed on 20 mm latex membranes (Millicell, Millipore) inserted into 35 mm Petri dishes containing 1 mL of culture medium and maintained in an incubator at 34° C., 95% 02-5% CO2. The culture medium contained 25 mL MEM, 1.25 mL HBSS, 12.5 mL horse serum, 0.5 mL penicillin/streptomycin, 0.8 mL glucose (1 M), 0.1 mL ascorbic acid (1 mg/mL), 0.4 mL Hepes (1 M), 0.5 mL B27, and 8.95 mL sterile H2O. At least 1 h before collecting the slices, PAs control, OC-PA KCl or OC-PA NaCl were painted on the external surface of the latex membranes by dragging a pipette (50 μL of annealed PAs control or OC-PAs) to extrude a thin coat of material and let organotypic slice cultures grow on it. The culture medium was changed regularly (every 3 days). Organotypic hippocampal slice cultures were used at 6, 10 and 14 DIV to perform electrophysiological recordings and at 10 DIV to perform immunostainings.
To perform electrophysiological recordings, the Millicell membrane containing the slices treated with PAs or OC-PAs was cut with a scalpel and transferred to a recording chamber perfused with oxygenated artificial cerebrospinal fluid (aCSF). This solution was maintained at 31° C. and contained: 125 mM NaCl, 26 mM NaHCO3, 3 mM CaCl2, 2.5 mM KCl, 2 mM MgCl2, 0.8 mM NaH2PO4, 10 mM D-glucose. It was finally equilibrated with 95% O2-5% CO2. Neurons were visualized under an upright microscope (Olympus BX50WI) in phase contrast by infrared video-microscopy using a 60× immersion objective. Whole-cell patch-clamp recordings were obtained from CA1 pyramidal neurons in dorsal hippocampal organotypic cultures at DIV6,10 and 14. Patch-clamp pipettes (7-9 MΩ) were filled with a solution containing (mM): K-gluconate 120, KCl 20, HEPES 10, EGTA 0, MgCl2 2, Na2ATP 2, and NaGTP 0.3 (pH 7.4). CA1 pyramidal neurons were recorded in whole cell current clamp with a MultiClamp 700B amplifier (Axon Instruments), digitalized at 20 kHz with Digidata 1440A (Molecular Devices), low pass filtered at 10 kHz, and acquired with Clampex software (Molecular Devices). For current-clamp recordings, pipette capacitance was compensated, and the bridge was balanced. […]

[1] = Anomalous small angle X-ray scattering (ASAXS) of Rb+ around PA and OC-PA; type: physicochemical
From the text: An anomalous small angle X-ray scattering (ASAXS) was used to deduce the spatial distribution of Rb^+ surrounding charged, twisted peptide amphiphile (PA) bilayer. ASAXS relies on the measurements of the subtle changes in the X-ray energy-dependent scattered intensity profiles from the combined counterion (here, Rb^+)-supramolecular assembly system. These changes arise due to strong dispersion corrections [f′(E), f″(E)] to the form factor (scattering/absorption power) of an atom or an ion when the X-ray energy E is close to the binding energy of a core-shell electron in the atom or the ion [(here, Rb^+ K-edge EK=15.2 keV.
Scattered intensity profiles were measured from 1 mM PA in solutions containing either 66 mM RbCl or 50 mM RbCl and 16 mM OC—Cl at 4 X-ray energies below the Rb^+ K edge (Table 8). The non-resonant
The block height h=1 nm is empirically selected for two reasons. First, no artifacts are introduced by this artificial construct in the simulated scattered intensities over the relevant ASAXS q range of 0.05-2 nm^−1 (FIG. 42). Second, this choice keeps the simulations relatively fast. The distribution of Rb^+ is assumed to follow the shape of each parallelepiped block (FIG. 43C), and consists of the condensed Rb^+ layer, which is associated with the 2 ionizable amino acid groups in the outer periphery of the PA bilayer, followed by 12 layers with exponentially decaying Rb^+ concentration. The total number of Rb^+ associated is equal to the parallelepiped charge, which is calculated based on estimates of the area/molecule/leaflet (At=0.5 nm^2) from molecular dynamics (MD) simulations and a fit parameter for the fraction of amino acids that are in the ionized state (a). Based on this model the orientationally averaged non-resonant intensity and the cross-term are calculated and compared to the data in FIG. 42. […]
The SAXS profiles in FIG. 42 were analyzed using the discretized model in FIG. 43. […] The best-fit was then selected based on manual calculations of the differences between the measured and simulated profiles. […]

Compound: CCn1cc[n+](C)c1.[Cl-] [OC, 1-ethyl-3-methyl imidazolium chloride]
- diffusion constant D (PA nanostructures; 160.0 mM EMIMCl in PBS pH 7.4, free organic cation): (1.179±0.002)·10^−9 m^2s^−1
- diffusion constant D (PA nanostructures; 160.0 mM EMIMCl in PBS pH 7.4 in the presence of 10.0 mM PA): (2.900±0.023)·10^−10 m^2s^−1
- diffusion constant Db (slow diffusing) (PA nanostructures; HRMAS DOSY, pelleted OC-PA): (3.326±0.004)·10^−12 m^2s^−1
- diffusion constant Df (fast diffusing) (PA nanostructures; HRMAS DOSY, pelleted OC-PA): (1.630±0.001)·10^−10 m^2s^−1

Compound: C16-VVAAEE (Palmitoyl-VVAAEE-NH2) [peptide amphiphile monomer, C16=palmitoyl, assembles into one-dimensional nanostructures]
- rheobase, representative traces (CA1 pyramidal neurons; 6 DIV): 90 pA and 80 pA
- rheobase, representative traces (CA1 pyramidal neurons; 10 DIV): 140 pA and 130 pA
- rheobase, representative traces (CA1 pyramidal neurons; 14 DIV): 130 pA
- Rheobase (CA1 pyramidal neurons; 6 days in vitro): 95.7 ± 5.6 and 86 ± 4.7
- Spikes evoked at 240 pA (CA1 pyramidal neurons; 6 days in vitro): 16.4 ± 1.1 and 16.2 ± 0.9
- Rheobase (CA1 pyramidal neurons; 10 days in vitro): 109.3 ± 4.8 and 121.8 ± 7.7
- Spikes evoked at 240 pA (CA1 pyramidal neurons; 10 days in vitro): 13.2 ± 0.7 and 12.8 ± 0.9
- Rheobase (CA1 pyramidal neurons; 14 days in vitro): 127 ± 4.4 and 131 ± 5.4
- Spikes evoked at 240 pA (CA1 pyramidal neurons; 14 days in vitro): 11.1 ± 0.5 and 10.3 ± 0.9
- Rb^+ concentration near headgroups over bulk Rb^+ concentration ([1]; 1 mM PA in 66 mM RbCl): ~ 40 ×
- degree of ionization a ([1]; 1 mM PA in 66 mM RbCl): 0.5
- fraction charged (simulated intensities fitted to ASAXS) ([1]; Rb^+ counterions): 50%
